This is an account of results in ChEMBL document CHEMBL5518188, “Discovery of 4-amino-1,6-dihydro-7H-pyrrolo[2,3-d]pyridazin-7-one derivatives as potential receptor-interacting serine/threonine-protein kinase 1 (RIPK1) inhibitors” (Eur J Med Chem, 2024).

The target in data set [1] is T1, Receptor-interacting serine/threonine-protein kinase 1 (Homo sapiens, UniProt Q13546).
T1 sequence (Q13546 whole entry): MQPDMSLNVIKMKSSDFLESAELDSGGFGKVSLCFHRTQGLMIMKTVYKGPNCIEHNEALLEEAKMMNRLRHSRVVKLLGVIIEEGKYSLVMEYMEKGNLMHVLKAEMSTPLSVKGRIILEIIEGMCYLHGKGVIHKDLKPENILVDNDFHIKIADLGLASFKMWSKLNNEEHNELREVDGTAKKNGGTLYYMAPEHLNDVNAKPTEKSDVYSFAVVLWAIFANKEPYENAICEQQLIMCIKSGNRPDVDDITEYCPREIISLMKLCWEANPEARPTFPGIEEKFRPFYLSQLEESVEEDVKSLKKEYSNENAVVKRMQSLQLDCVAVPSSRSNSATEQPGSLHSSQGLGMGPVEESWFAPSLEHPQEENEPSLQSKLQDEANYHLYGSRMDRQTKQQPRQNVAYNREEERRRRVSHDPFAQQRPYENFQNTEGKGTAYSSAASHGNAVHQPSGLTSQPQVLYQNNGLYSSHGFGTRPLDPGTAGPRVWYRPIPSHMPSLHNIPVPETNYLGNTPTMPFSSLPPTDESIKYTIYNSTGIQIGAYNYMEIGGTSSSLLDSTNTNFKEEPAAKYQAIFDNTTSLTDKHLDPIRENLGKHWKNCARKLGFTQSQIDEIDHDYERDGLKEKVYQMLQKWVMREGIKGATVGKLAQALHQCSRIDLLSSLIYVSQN
Nature of the data set: Inhibition of RIPK1 (unknown origin) in presence of ATP by kinaseProfiler assay.

A further data set concerns HT-29. In words: Anti-necroptosis activity against TSZ-induced human HT-29 cells. The data set is classed as functional, cell-based.
The next data set has as its system U-937. In words: Anti-necroptosis activity against TSZ-induced human U-937 cells. The data set is classed as functional, cell-based.
The nature of data set [2]: Oral bioavailability in BALB/c mouse at 10 mg/kg. Type of data set: ADME, organism-based. To be noted: BALB/c, in vivo.
Data set [3] can be described thus: Cmax in BALB/c mouse at 10 mg/kg, po. Type of data set: ADME, organism-based. The settings on record: in vivo.
Data set [4] in a line: Tmax in BALB/c mouse at 10 mg/kg, po. The data set is classed as ADME, organism-based. To be noted: in vivo.
Data set [5] is described as follows: Apparent volume of distribution in BALB/c mouse at 10 mg/kg, po. The data set is classed as ADME, organism-based. To be noted: in vivo.
A short description of data set [6]: Cmax in BALB/c mouse at 10 mg/kg, iv. The data set is classed as ADME, organism-based. To be noted: in vivo.
Data set [7] is described as follows: Tmax in BALB/c mouse at 10 mg/kg, iv. Type of data set: ADME, organism-based. To be noted: in vivo.
Data set [8] in a line: AUC (0 to t) in BALB/c mouse at 10 mg/kg, iv. To be noted: BALB/c, in vivo. Type of data set: ADME, organism-based.
Data set [9] deals with T1, Receptor-interacting serine/threonine-protein kinase 1. In words: Binding affinity to RIPK1 (unknown origin) assessed as dissociation constant.
The target in data set [10] is T2, Receptor-interacting serine/threonine-protein kinase 3 (Homo sapiens, UniProt Q9Y572). In words: Binding affinity to RIPK3 (unknown origin) assessed as dissociation constant.
Target sequence in this assay (Q9Y572 whole entry, the tested form may be a part): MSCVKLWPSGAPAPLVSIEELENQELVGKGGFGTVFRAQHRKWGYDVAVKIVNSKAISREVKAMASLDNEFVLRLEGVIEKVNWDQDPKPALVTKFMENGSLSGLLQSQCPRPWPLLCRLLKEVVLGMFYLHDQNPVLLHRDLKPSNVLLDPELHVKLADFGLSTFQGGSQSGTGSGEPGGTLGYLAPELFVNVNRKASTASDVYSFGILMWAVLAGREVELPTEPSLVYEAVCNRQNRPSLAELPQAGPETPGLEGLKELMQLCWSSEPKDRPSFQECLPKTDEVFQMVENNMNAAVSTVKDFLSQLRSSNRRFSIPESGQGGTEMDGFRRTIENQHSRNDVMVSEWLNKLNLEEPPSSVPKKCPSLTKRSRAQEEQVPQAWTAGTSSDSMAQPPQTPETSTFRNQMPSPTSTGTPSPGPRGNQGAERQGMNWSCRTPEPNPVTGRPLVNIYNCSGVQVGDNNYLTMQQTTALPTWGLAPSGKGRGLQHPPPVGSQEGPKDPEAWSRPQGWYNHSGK
In data set [11] the target is T3, Mixed lineage kinase domain-like protein (Homo sapiens, UniProt Q8NB16).
T3 sequence (Q8NB16 whole entry): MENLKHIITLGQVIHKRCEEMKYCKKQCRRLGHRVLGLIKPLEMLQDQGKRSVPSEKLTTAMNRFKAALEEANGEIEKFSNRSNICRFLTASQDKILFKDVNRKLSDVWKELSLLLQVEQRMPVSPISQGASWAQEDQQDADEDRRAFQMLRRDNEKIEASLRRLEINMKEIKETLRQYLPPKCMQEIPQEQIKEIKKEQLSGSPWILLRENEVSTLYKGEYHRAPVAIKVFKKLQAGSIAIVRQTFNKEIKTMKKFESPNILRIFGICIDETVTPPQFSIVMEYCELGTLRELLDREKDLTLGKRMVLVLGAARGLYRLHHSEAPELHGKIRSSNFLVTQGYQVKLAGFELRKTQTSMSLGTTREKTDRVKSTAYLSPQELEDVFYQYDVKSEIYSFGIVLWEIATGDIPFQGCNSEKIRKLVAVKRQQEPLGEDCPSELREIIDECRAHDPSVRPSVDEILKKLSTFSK
Nature of the data set: Binding affinity to MLKL (unknown origin) assessed as dissociation constant.

Another data set concerns Mus musculus. Nature of the data set: In vivo anti-necrotptic activity in SIRS mouse model assessed as protection from body temperature loss at 10 mg/kg, po measured upto 6 hrs. Type of data set: functional, organism-based.
For data set [12], the target named is T4, Discoidin domain-containing receptor 2 (Homo sapiens) (UniProt Q16832).
T4 sequence (whole entry): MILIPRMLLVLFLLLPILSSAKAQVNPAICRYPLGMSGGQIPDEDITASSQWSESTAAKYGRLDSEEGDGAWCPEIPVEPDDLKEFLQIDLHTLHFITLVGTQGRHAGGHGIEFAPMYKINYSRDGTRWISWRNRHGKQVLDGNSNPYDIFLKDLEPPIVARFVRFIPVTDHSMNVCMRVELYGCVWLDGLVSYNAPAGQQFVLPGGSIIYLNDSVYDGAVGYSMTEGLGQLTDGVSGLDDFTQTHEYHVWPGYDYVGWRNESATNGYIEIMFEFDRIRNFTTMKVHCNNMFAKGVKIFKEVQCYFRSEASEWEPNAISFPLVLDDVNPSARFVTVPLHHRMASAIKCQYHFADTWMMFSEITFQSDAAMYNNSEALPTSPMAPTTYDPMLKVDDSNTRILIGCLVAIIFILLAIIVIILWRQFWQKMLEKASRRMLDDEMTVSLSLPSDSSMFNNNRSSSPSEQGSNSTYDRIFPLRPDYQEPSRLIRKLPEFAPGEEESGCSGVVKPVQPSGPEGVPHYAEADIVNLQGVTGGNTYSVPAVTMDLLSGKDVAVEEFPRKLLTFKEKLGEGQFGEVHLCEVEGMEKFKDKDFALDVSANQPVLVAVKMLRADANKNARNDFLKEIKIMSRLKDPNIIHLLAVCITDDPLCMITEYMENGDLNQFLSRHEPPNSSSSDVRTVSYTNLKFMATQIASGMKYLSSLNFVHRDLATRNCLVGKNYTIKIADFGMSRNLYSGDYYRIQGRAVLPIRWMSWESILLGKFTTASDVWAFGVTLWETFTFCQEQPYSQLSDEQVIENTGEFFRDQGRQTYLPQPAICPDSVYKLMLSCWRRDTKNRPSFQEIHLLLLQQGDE
Nature of the data set: Inhibition of DDR2 (unknown origin).

In data set [13] the target is High affinity nerve growth factor receptor (Homo sapiens) (UniProt P04629). Nature of the data set: Inhibition of TRKA (unknown origin).
High affinity nerve growth factor receptor (Homo sapiens), sequence (P04629 33-796 limits assumed): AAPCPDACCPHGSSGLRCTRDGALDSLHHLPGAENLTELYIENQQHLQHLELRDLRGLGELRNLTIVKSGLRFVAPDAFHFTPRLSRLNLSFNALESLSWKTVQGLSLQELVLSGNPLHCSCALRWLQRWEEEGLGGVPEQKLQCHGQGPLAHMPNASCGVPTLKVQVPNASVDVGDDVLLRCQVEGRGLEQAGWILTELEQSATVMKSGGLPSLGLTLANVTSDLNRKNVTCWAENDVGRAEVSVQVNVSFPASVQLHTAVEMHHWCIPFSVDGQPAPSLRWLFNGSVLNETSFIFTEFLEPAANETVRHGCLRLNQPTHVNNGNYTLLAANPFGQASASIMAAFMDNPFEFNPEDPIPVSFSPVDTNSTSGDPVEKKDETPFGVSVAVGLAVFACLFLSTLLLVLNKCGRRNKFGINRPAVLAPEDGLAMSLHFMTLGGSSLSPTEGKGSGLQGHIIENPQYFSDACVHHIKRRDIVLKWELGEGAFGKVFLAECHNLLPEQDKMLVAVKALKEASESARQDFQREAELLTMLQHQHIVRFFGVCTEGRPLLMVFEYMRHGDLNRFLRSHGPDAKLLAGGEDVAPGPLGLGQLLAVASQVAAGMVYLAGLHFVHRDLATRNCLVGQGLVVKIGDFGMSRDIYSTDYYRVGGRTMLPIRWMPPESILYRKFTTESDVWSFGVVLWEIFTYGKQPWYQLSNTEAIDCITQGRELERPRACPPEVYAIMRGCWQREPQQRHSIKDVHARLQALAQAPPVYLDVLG
Data set [14] has as its target BDNF/NT-3 growth factors receptor (Homo sapiens) (UniProt Q16620). Nature of the data set: Inhibition of TRKB (unknown origin).
For data set [15], the target named is Eukaryotic translation initiation factor 2-alpha kinase 1 (Homo sapiens) (UniProt Q9BQI3). In words: Inhibition of HRI (unknown origin).
Eukaryotic translation initiation factor 2-alpha kinase 1 (Homo sapiens), sequence (Q9BQI3 whole entry): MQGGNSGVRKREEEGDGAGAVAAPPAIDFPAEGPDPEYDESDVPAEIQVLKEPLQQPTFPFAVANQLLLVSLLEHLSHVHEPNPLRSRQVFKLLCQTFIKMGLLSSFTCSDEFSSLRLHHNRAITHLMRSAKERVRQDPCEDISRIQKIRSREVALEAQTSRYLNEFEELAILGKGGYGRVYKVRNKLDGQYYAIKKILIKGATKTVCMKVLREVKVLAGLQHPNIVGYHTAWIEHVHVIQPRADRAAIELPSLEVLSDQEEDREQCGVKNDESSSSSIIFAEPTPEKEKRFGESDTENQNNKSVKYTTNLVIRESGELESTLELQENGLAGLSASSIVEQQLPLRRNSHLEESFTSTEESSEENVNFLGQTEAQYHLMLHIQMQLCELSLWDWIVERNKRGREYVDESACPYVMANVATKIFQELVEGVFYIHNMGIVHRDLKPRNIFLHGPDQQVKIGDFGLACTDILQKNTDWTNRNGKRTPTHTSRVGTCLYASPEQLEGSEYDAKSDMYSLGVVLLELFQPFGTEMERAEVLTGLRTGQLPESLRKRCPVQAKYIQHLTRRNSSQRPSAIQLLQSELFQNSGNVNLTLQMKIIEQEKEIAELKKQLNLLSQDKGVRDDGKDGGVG
For data set [16], the target named is Vascular endothelial growth factor receptor 2 (Homo sapiens) (UniProt P35968). Nature of the data set: Inhibition of KDR (unknown origin).
Vascular endothelial growth factor receptor 2 (Homo sapiens), sequence (P35968 whole entry): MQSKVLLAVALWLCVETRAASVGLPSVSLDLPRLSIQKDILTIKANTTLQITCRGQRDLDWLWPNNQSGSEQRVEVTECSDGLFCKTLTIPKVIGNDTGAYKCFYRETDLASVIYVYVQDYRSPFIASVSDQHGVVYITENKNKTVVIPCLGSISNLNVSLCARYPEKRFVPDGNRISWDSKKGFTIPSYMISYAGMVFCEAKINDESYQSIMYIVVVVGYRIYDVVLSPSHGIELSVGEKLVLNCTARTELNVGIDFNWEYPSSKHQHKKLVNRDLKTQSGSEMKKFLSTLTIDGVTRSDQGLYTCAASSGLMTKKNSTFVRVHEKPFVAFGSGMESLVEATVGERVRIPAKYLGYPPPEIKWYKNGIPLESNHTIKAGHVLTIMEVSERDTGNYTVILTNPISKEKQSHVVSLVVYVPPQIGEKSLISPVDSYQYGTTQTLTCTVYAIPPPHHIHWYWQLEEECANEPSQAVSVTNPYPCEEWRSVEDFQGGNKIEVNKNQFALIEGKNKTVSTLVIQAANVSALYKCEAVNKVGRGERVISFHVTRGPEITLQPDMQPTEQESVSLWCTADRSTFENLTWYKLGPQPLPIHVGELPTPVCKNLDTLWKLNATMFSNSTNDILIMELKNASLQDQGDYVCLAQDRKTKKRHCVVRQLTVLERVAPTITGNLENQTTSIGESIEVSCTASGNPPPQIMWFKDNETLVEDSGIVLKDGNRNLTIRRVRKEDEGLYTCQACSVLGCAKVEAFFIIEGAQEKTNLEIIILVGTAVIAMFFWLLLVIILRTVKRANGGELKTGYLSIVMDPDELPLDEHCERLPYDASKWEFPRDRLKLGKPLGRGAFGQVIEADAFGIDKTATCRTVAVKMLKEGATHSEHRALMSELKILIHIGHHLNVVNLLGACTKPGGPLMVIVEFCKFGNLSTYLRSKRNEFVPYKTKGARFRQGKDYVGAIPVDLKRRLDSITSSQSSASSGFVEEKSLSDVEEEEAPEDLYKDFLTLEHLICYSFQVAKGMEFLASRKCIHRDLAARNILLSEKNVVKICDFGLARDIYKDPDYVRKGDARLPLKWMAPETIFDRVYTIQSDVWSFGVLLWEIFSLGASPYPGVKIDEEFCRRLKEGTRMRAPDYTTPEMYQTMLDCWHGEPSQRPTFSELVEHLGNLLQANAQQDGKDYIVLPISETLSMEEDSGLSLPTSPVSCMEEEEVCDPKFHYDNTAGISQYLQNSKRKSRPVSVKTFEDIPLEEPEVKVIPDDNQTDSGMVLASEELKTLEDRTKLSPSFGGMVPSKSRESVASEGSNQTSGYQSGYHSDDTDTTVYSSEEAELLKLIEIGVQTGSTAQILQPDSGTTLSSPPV
In data set [17] the target is T2, Receptor-interacting serine/threonine-protein kinase 3. To be noted: HT-29, dose 3.0 nM, time 6.0 hrs.
Target sequence in this assay (Q9Y572 whole entry, looked up, the tested form may be a part): as the sequence (Q9Y572 whole entry, the tested form may be a part) above
For data set [18], the target named is T5, Mixed lineage kinase domain-like protein (Homo sapiens) (UniProt Q8NB16).
T5 sequence (whole entry): T3 sequence (Q8NB16 whole entry)
To be noted: HT-29, dose 30.0 nM, time 6.0 hrs.

Active and inactive are the calls of the source. No cut-off for these calls is given here.

The IC50 is the concentration that gives 50% inhibition. The EC50 is the concentration giving half of the maximal effect. A low value points to higher potency in that assay. Broadly, the bioavailability is the share of a dose that reaches the circulation, judged against a reference dose that is usually intravenous. Usually Cmax stands for the maximum level reached in the sampled fluid or tissue. The Tmax is the time from dosing to the highest level. Usually AUC(0-t) stands for exposure summed from dosing to a finite time, without extrapolation to infinity. The term Kd denotes the free concentration of one partner at which half of the binding sites on the other are occupied at equilibrium, for simple one-to-one binding.

BDNF/NT-3 growth factors receptor (Homo sapiens), sequence (Q16620 32-822 limits assumed): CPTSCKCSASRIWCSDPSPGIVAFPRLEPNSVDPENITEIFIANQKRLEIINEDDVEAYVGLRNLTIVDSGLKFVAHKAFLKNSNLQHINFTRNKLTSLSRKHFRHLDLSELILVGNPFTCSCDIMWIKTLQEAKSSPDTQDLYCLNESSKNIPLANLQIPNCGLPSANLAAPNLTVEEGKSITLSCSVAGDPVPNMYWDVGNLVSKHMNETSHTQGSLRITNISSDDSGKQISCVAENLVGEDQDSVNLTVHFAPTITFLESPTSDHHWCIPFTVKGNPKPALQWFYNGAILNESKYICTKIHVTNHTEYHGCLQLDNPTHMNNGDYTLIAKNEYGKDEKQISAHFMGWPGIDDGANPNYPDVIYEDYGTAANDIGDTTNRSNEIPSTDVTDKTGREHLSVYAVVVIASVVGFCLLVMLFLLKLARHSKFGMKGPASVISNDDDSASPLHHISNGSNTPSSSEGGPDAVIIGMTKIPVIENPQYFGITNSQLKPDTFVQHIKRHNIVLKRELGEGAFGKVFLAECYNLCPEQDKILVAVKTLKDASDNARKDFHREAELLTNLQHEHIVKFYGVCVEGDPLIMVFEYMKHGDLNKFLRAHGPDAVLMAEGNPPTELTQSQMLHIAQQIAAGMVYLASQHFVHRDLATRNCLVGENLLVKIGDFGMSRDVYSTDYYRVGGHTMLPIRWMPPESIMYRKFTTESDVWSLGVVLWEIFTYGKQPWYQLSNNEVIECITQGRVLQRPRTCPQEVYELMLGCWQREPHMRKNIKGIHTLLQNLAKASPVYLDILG

With `CC1(Cn2cc(-c3ccc4c(c3)CCN4C(=O)Cc3cccc(OC(F)(F)F)c3)c3c(N)n[nH]c(=O)c32)COC1`, the IC50 in [1] is 59.8 nM. In addition, the results for the EC50 in the data set with HT-29 and with U-937 were 4.58 nM and 3.09 nM, respectively. The bioavailability in data set [2] was 59.5%. Further, the Cmax stood at 2700 ng/mL in data set [3] and 8040 ng/mL in [6]. Further, the Tmax in data set [4] and in data set [7] was 4.8 min each time. Moreover, the Vz in data set [5] was 1.24 L/kg. Also, in data set [8], the AUC(0-t) turned out to be 9640 ng·h/mL. Also, the dissociation constant Kd was 3.5 nM in data set [9], 1700 nM in data set [10] and over 30000 nM in [11]. In addition, the outcome in the data set with Mus musculus was Active. Also, the inhibition entry in data set [12], in data set [13], in [14], in data set [15] and in [16] was “Active” throughout. For the same compound, the inhibition result in [17] and in data set [18] was “Dose-Dependent Effect” in each case.
